Experimental data from a melting point compilation (Tetko et al.; mined from patent text by program, amines drawn as free bases though some values may be those of a salt).

| melting point [°C] | Compound |
| --- | --- |
| 153 to 155 | CCOC1C=CC(Cl)=CC1(C)S(N)(=O)=O (centres undefined) |
| 159 to 160 | CCc1nc(C(=O)NCCc2ccc(S(N)(=O)=O)cc2)no1 |
| 157 to 159 | O=C1CCN(C(=O)c2ccc(Cl)cc2Cl)c2c(Cl)cccc21 |
| 242 to 245 | O=C(O)COc1cc2c(=O)c3c(F)cccc3oc2cc1Cl |
| 61 to 62 | O=C(Cc1ccccc1)c1cccnc1 |
| 149 to 150 | Nc1ncnc2c1c(Cl)cn2COCCO |
| 121 to 123 | COc1ccccc1C=CC(=O)CC(=O)C=Cc1ccccc1OC |
| 149 to 151 | CC(C)(O)Cn1c(CO)nc2c(N)nc3cc(-c4cncc(CO)c4)cnc3c21 |
| 157 to 159 | CC(=O)N1CCC(CCC(=O)c2cc3c4c(c2)CCN4C(=O)CC3)CC1 |
| 236 | NCCCCCCC(=O)Nc1cccc(C(=O)NCCC(=O)O)c1 |
| 113 to 114 | CC(C(=O)NCC(=O)O)C(SC(=O)c1ccccc1)SC(=O)c1ccccc1 (centres undefined) |
| 229 | C[C@H](NC(=O)c1cccc(NS(=O)(=O)CC2CN(C(c3ccc(Cl)cc3)c3ccc(Cl)cc3)C2)c1)C(N)=O |
| 195 to 200 | CCOC(=O)Cn1nc(-c2cc(Cl)ccc2O)nc1-c1cc(Cl)ccc1O |
| 128 to 129 | COc1cc2c(cc1Br)CC(C)OC2c1ccc([N+](=O)[O-])cc1 (centres undefined) |
| 73 to 75 | COC(=O)c1sc2c(c1O)CCC2 |
| 124 to 126 | CCOC(=O)C1=CC2(CCC1S(=O)(=O)Nc1ccc(F)cc1Cl)OC(CC)C(CC)(CC)O2 (centres undefined) |
| 124 to 125 | CCCCCCCC(=O)N(C)Cc1cccc(-c2ccc(C=CC(=O)O)cc2)c1 |
| 176 to 178 | C[C@@H]1OCCN(c2nc(N3CCOCC3)nc(-n3c(C(F)F)nc4ccccc43)n2)[C@@H]1C (relative stereo) |
| 140 to 141 | COC(=O)Nc1cc(C)c(Br)cc1I |
| 180 to 181 | CSC(Nc1cccnc1)=C(C#N)C#N |
| 57 to 60 | Cn1ncc2c1SSSSS2 |
| 179 to 180 | CCOc1cnccc1-c1nc2n(C3CCCC3)[nH]c(CC)c-2c(=O)n1 |
| 211 to 213 | COc1ccc2cc(-n3c(C)nnc3C)cc(C)c2n1 |
| 170 to 172 | O=C(c1ccc(Cl)cc1)N1CCc2nnc(Cl)cc2C1 |

| melting point [°C] | Compound |
| --- | --- |
| 108 to 109 | Cc1ccc(S(=O)(=O)C(=[N+]=[N-])S(C)(=O)=O)cc1 |
| 204 to 206 | CC1CN(c2c(F)cc3c(=O)c(C(=O)O)cn4c3c2CC4C)CC(C)N1C (single isomer, unassigned; (+)) |
| 137 to 138 | Clc1ccc(-c2cc(C3CC3)n3nccc3n2)cc1 |
| 93 to 94 | CN(Cc1ccc(N)cc1)C1CCOCC1 |
| 35.2 to 36.7 | CC(C)c1ccc(S(=O)(=O)O)cc1 |
| 348 to 350 | O=C(O)c1ccc(-c2nn(-c3ccc(C(=O)O)cc3)c3ccc([N+](=O)[O-])cc23)cc1 |
| 43 to 45 | CCCN(CCC)C(C)(C)CC(C)(C)C |
| 89 to 91 | COC(=O)[C@H](Cc1ccc(OCCNC(=O)OC(C)(C)C)cc1)NC(=O)OCc1ccccc1 |
| 175 to 177 | CC(C)(C)OC(=O)NCC1=CC(c2ccccc2)Cc2c1ccc(O)c2O (centres undefined) |
| > 300 | Cc1ccc(-c2nc(-c3ccncc3)cs2)c(=O)[nH]1 |
| 125 to 127 | COC(=O)[C@@H]1CSC(=S)N1CC(C)(C)SCc1ccc(OC)cc1 |
| 245 | CN(C)C(=O)c1nc(Cl)c(Cl)[nH]1 |
| 256 to 259 | CC(=O)Nc1cc2c(cc1[N+](=O)[O-])[C@@H](NC(C)=O)[C@H](O)C(C)(C)O2 (relative stereo) |
| 102 to 104 | COC(=O)Cn1c(CCc2ccccc2)ccc(NC(=O)OCc2ccccc2)c1=O |
| > 250 | CCOCc1nc2c(N)nc3cc(-c4cn[nH]c4)ccc3c2n1CC(C)(C)O |
| 274 to 277 | COc1ccc(/C=C/c2ccc3cc(C(=O)O)ccc3n2)cc1 |
| 142 to 145 | CCc1ccc2c(c1)C=Cc1oc(C)nc1C2c1cn(Cc2cccc(C(=O)Nc3n[nH]c(C(F)(F)F)n3)c2)c(=O)[nH]c1=S (centres undefined) |
| 84 to 86 | CO[C@@H](C(=O)N[C@H]1CC[C@@H](OC(=O)C2CCCCCC2)CNC1=O)[C@H](O)[C@@H](O)[C@H](O)/C=C/C(C)(C)C |
| 117 to 119 | CCONC(=O)c1cc(Br)c(Br)s1 |
| 106 to 108 | Fc1ccc(N2CCN(CCCc3cnc4n3CCCC4)CC2)cc1 |
| 208 to 209 | C/C(=C\c1ccc(P(=O)(O)O)cc1)c1ccc2c(c1)C(C)(C)CCC2(C)C |
| 211 | COC(=O)C1=C(C)NC(N)=C(C(=O)OC(C)C)C1c1ccccc1C#N (centres undefined) |
| 252 to 258 | O=C(Nc1ccc(C(=O)N2Cc3cccn3Cc3ccccc32)cc1)c1cccc(F)c1F |
| 93 to 95 | COC(=O)c1cc(OC)cc(OC)c1N |

| melting point [°C] | Compound |
| --- | --- |
| 101 | O=C(O)CC1(CCCCCCCCC2(CC(=O)O)CC2)CC1 |
| 275 | CC[C@H](NC(C)=O)c1nc2c(C(F)(F)F)cccc2c(O)c1C(=O)Nc1nccs1 |
| 75 | CCc1cc(N)c(C(=O)OC)c(CC)n1 |
| 118 to 120 | O=C(c1ccc(Cl)cc1)c1cc[nH]c1 |
| 95 to 96 | C=CCNC(=O)CCNc1nc(NCC=C)nc2c(C)csc12 |
| 165 to 166 | NS(=O)(=O)c1ccc(CCCNCC(O)c2ccccc2)cc1 (centres undefined) |
| 88 to 90 | COC(=O)N1CCC(CCC(=O)O)CC1 |
| > 300 | CC(=O)N(C)[C@H]1CCN(C(=O)c2ccc(-c3[nH]nc4c3C(=O)c3c(NC(=O)NN5CCOCC5)cccc3-4)s2)C1 |
| 210 to 212 | CC(=O)NC[C@H]1CN(c2ccc(N3CCC(F)(CC#N)CC3)c(F)c2)C(=O)O1 |
| 132 to 133 | Cc1cc(-c2c[nH]cc2C#N)c(Cl)cc1F |
| 134 | CN1CC(CN)Oc2c(-c3cccc(Cl)c3)cccc21 (centres undefined) |
| 152 to 161 | CCCC(=O)C(=O)C(CC1CCCCC1)NC(=O)C(CC(C)C)NC(=O)C(Cc1ccccc1)NC(=O)C1CCCC1 (centres undefined) |
| 236 | N#Cc1c(Cl)c2cc(F)ccc2n(Cc2ccc(F)cc2)c1=O |
| 77 to 79 | CN1C(=O)N(c2ccccc2)S[N+]1(C)[O-] (centres undefined) |
| 112 to 115 | Ic1ccc(-c2cccnc2)cc1 |
| 68 to 73 | CCCCOc1coc(CO)cc1=O |
| 242 to 250 | CNc1cc2c(Nc3ccc(Sc4nccn4C)c(Cl)c3)c(C#N)cnc2cc1N1CCC(N2CCCC2)CC1 |
| 146 to 147 | CC(=O)N[C@@H]1c2ccccc2C[C@@H]1C (relative stereo) |
| 109 to 111 | CCOc1cc(C(=CC#N)c2ccc(OC)c(-n3cccc3)c2)ccc1OC |
| 232 | CCOC(=O)c1cn(C)c2ccc(C(=O)c3c(C)cc4ccccn34)cc2c1=O |
| 120 | CCC1(Cc2ccccc2)C(=O)N(C)C(=Cc2ccccc2C#N)C(=O)N1C (centres undefined) |
| 154 | COC(=O)c1nc(S)n(C(c2ccccc2)c2ccccc2)c1C(=O)OC |
| 130 to 135 | CC1(C)[C@@H](CN2CC[C@@H](O)C2)CC[C@@]1(C)NCC(=O)N1C[C@@H](F)C[C@H]1C#N |
| 217 to 219 | Cc1cc(C)cc(Nc2nccc(-c3nc4ccccc4s3)n2)c1 |

| melting point [°C] | Compound |
| --- | --- |
| 110 to 112 | CCCCN(C(=O)C1CCCCC1)c1nn(C)cc1Cl |
| 155 | CC(=O)c1c(CBr)n(S(=O)(=O)c2ccccc2)c2ccc(Cl)cc12 |
| 220 to 221 | CCCc1nc2cccc(C(O)=S)c2n1Cc1ccc(-c2ccccc2-c2nc(=O)o[nH]2)cc1 |
| 95 to 96 | CCCc1sc2nc(CCl)c(C(=O)OCC)c(-c3ccc(Cl)cc3)c2c1C |
| 104 to 108 | Cn1nc(-c2ccccc2Cl)nc1-c1ccc(Oc2ccc(C(F)(F)F)cn2)cc1Cl |
| 185 | O=C1c2ccc(Cl)cc2CCc2c(O)cccc21 |
| 146 to 148 | CC1(C)OCCC(=O)c2ccccc2NC1=O |
| 222 to 224 | CNC(=O)c1cc(Oc2ccc(NC(=O)Nc3ccc4c(c3)C(F)(F)OC(F)(F)O4)c(S(C)(=O)=O)c2)ccn1 |
| 36.5 to 37 | CCOC(=O)C(NC(=O)OCc1ccccc1)C(=O)OCC |
| 184 to 186 | CS(=O)(=O)c1ccc(-c2nc3cc(C4=CCN(S(=O)(=O)CCCO)CC4)ccc3o2)c(F)c1 |
| 270 to 272 | O=C(CNc1c(C(=O)O)[nH]c2cc(Cl)cc(Cl)c12)c1ccc([N+](=O)[O-])cc1 |
| 113 to 115 | CCSC(C#N)C1=NCCc2cc(OC)c(OC)cc21 (centres undefined) |
| 227 to 230 | Cc1cc(O)ccc1-c1c(C=O)sc(-c2ccc(O)c(F)c2)c1C |
| 183 to 184 | CN1C(=O)CCC2(C)C3CCC4(C)C(Oc5ccc([N+](=O)[O-])cc5)CCC4C3CCC12 (centres undefined) |
| 72 to 74 | COP(C)(=O)C1CC(c2ccccc2)=NO1 (centres undefined) |
| 200 to 202 | Oc1ccc2cc(-c3cnc(Cc4ccccc4)o3)ccc2c1 |
| 168 to 169 | N#Cc1cc(Cl)ccc1-c1ccc(C(O)CCC(=O)O)cc1 (centres undefined) |
| 266 to 267 | CC(C)n1nc(-c2c(-c3ccccc3)nn3ccc(N4CCCC4=O)cc23)ccc1=O |
| 150 to 152 | O=C1c2c(-c3ccc(Cl)cc3)noc2CCC1CCCN1CCN(C(c2ccc(F)cc2)c2ccc(F)cc2)CC1 (centres undefined) |
| 72 to 75 | CCCC=Cc1c(C(C)C)nc(C(C)C)c(CO)c1-c1ccc(C)cc1 |
| 271 to 274 | CC1CCc2c(Cl)c(N3CCOCC3)cc3c(=O)c(C(=O)O)cn1c23 (centres undefined) |
| 119 to 121 | CCOC(=O)c1ccc(NC(=O)CCc2ccc3ccccc3c2)cc1 |

| Compound | melting point [°C] |
| --- | --- |
| Oc1ccc2c(c1)C13CCCCC1N(C2)NCC3 (single isomer, unassigned; (-)) | 244 to 246 |
| CCN(CC)C(=O)Cc1c(-c2ccc(C)cc2)nc2c(C)cc(C)nn12 | 155 to 158 |
| CCOC(=O)c1ccc(CCN2CCN(C(=O)Cc3ccc(Cl)cc3)CC2)cc1 | 88 to 89 |
| O=C(Nc1nccs1)c1cn(CC2CC2)c2cc(Cl)ccc12 | 185 to 187 |
| CCOC(=O)C(C(=O)OCC)C(=O)C1CCC2C3CCC4CC(O)CCC4(C)C3C(=O)CC12C (centres undefined) | 116 to 117 |
